Results reported in patent US6900315B2, “2-amino-9H-purin-9-yl compounds and methods for inhibiting/treating HIV infections and AIDS related symptoms” (Yale University, priority 2001, dated 2005).
Read-outs that look alike come from different tables or passages of the source.

What was measured:
[1] = target: T1, wild type HIV-1 reverse transcriptase (Human immunodeficiency virus type 1 group M subtype B, UniProt P04585); conditions: from Ray and Anderson or Furman et al., cited from earlier work
T1 construct: a mixture of 100 nM HIV-1 reverse transcriptase and 300 nM primer/template

[2] = target: T2, mitochondrial polymerase gamma (Homo sapiens, UniProt P54098); assay: Nucleotide incorporation by mitochondrial polymerase gamma into an elongating DNA strand; assay type: biochemical; conditions: for Kd / kpol / kpol/Kd: mitochondrial polymerase gamma, incorporation
T2 sequence (P54098 1-1239): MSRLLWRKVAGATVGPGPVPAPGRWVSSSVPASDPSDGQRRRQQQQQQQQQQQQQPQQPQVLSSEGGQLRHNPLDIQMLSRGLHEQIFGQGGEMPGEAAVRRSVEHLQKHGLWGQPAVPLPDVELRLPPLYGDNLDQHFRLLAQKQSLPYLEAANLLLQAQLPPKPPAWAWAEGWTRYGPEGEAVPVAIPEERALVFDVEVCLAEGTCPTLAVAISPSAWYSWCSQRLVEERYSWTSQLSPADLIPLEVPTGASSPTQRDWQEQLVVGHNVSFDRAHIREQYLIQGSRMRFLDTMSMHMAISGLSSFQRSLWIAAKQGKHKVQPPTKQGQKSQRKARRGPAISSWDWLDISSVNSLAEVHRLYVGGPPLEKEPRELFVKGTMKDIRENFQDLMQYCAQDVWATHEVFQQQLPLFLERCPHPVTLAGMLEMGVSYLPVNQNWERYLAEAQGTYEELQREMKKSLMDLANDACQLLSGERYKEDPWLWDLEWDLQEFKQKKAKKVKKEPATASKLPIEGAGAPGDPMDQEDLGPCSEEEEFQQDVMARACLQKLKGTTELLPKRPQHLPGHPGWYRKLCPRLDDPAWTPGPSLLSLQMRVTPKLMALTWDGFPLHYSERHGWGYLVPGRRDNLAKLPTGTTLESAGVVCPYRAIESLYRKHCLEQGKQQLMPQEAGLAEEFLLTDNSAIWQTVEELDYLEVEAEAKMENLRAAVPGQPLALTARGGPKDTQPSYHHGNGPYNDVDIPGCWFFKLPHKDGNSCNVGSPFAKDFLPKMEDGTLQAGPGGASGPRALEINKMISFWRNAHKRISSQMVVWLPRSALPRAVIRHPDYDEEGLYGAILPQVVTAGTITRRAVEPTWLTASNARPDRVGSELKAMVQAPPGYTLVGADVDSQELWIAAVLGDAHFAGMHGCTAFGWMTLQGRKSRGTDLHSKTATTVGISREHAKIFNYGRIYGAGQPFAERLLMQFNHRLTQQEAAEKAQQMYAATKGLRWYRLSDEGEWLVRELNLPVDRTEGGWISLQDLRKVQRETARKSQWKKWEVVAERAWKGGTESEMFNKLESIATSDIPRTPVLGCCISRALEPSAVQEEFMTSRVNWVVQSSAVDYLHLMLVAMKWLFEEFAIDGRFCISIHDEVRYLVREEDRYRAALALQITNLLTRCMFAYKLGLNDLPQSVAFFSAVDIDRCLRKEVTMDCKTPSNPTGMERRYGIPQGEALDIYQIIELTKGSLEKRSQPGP

[3] = target: T1, wild type HIV-1 reverse transcriptase; assay: Kinetics of nucleotide incorporation by wild type HIV-1 reverse transcriptase; assay type: biochemical; set-up: kpol/Kd: unit not given here
Experimental: Continued research on the guanosine prodrug approach for making D4G a viable anti-HIV agent has yielded a number of new findings. In the present example, enzyme kinetics for the incorporation of the active metabolites of guanosine prodrugs with wild type HIV-1 reverse transcriptase was determined. In this experiment, a mixture of 100 nM HIV-1 reverse transcriptase and 300 nM primer/template in which the correct base incorporation is a guanine nucleotide was rapidly mixed with nucleotide in the presence of 50 mM Tris, 50 mM NaCl and 10 mM MgCl2 for a set amount of time and then the reaction was stopped by the addition 300 mM of EDTA.

[4] = target: T2, mitochondrial polymerase gamma; assay: Exonuclease removal from chain terminated primer template by mitochondrial polymerase gamma; assay type: biochemical
[5] = system: mitochondrial DNA in CEM cells; assay: Mitochondrial toxicity: ratio of mitochondrial DNA to Alu repeat in CEM cells; assay type: cell-based; conditions: human, 8 days
From the text: After 8 days of growth the cells were lysed and probed for the amount of mitochondrial DNA and normalized for differences in the amount of total DNA by probing for the Alu repeat. By comparing the amount of mitochondrial DNA to the amount of Alu repeat the % decrease in mitochondrial DNA in the presence of various concentrations of drug can be obtained. All experiments were done in triplicate. Techniques which are presented here have been previously described in Chen and Cheng, J. Biol. Chem., vol. 264, 11934-7 (1989).

HEP-G2 = assay: Toxicity, dye based cell growth assay, HEP-G2; conditions: Homo sapiens, HepG2, 120 h, read-out: IC50 (inhibited 50% of the cell growth); HEP-G2, hepatoma cell line, 5 days
Experimental: (§1) To determine the toxicity of the compounds to various cell lines (Table 1, below), a similar dye based assay is performed in the absence of HIV. The toxicity of the compounds alone therefore was determined.

HIV [6] = conditions: cited from earlier work
KB = assay: Toxicity, dye based cell growth assay, KB; conditions: Homo sapiens, 120 h, read-out: IC50 (inhibited 50% of the cell growth), oral carcinoma, 5 days
Experimental: as §1

HeLa = assay: Toxicity, dye based cell growth assay, HeLa; conditions: Homo sapiens, 120 h, read-out: IC50 (inhibited 50% of the cell growth), cervical cancer cell line, 5 days
Experimental: as §1

CEM = assay: Toxicity, dye based cell growth assay, CEM; conditions: Homo sapiens, CCRF-CEM, 120 h, read-out: IC50 (inhibited 50% of the cell growth); CEM, T cell line, 5 days
Experimental: as §1

HIV IIIB = assay: Anti-HIV activity in MT-2 cells infected with HIV IIIB, MTT dye cell viability; assay type: cell-based; conditions: for anti-HIV activity: summary of Table 1
Experimental: To assess the ability of the compounds according to the present invention to inhibit viral infection relative to other compounds experiments were performed in the MT-2 cell line, as previously described by Larder, et al., Antimicrobial Agents & Chemotherapy, vol. 34, 436 (1990). […] Cells were infected at an initial multiplicity of infection (MOI) of 0.1 and grown for 5 days. Cell viability was assessed by the use of dye metabolized by viable cells.

MT-2 = assay: Toxicity, dye based cell growth assay in absence of HIV, MT-2; conditions: Homo sapiens, MT2, 120 h, read-out: IC50 (inhibited 50% of the cell growth); MT-2, HTLV infected T cell line, 5 days
Experimental: as §1

HIV [7] = assay: Effect of mycophenolic acid on anti-HIV activity of nucleoside analogs in cell culture; assay type: cell-based
Experimental: FIG. 2 presents table 6 and indicates the effect that mycophenolic acid has on the anti-HIV activity of the indicated nucleoside analogs. In the experiment depicted in this Figure, 1×10^5 cells/ml were incubated with or without 200 nM mycophenolic acid for 30 minutes and then added to wells containing nucleoside analogs to test for toxicity and anti-HIV activity. The date presented is representative of at least two independent trials.
In cell culture, the mechanism of activation for D4G prodrugs has been investigated with the initial model compound cyclo D4G. […] Experiments with mycophenolic acid, an inhibitor of inosine monophosphate (IMP) dehydrogenase have been used to study the guanine dependence of activation for cyclo D4G. The addition of mycophenolic acid results in an increase in cellular IMP and a decrease in GMP and all other guanine containing nucleosides and nucleotides. […]. The data which is presented is representative of at least two independent trials. Furthermore, cyclo D4G's activity could be rescued by the addition of guanine to the media (data not shown).

HIV [8] = assay: Anti-HIV drug combination (synergy, isobologram of FEC50) in cell culture; assay type: cell-based
Experimental: Points on this line represent the compounds working independently.
In an attempt to understand how D4G prodrugs of the present invention would interact with other clinically approved compounds, experiments were performed with drug combinations. […] Points on the line represent two compounds working independently. […] See, Bridges, et al., Biochem. Pharmacol., 51, 731 (1996) and Dutschman, et al., Antimicro. Agents Chemother. 42, 1799 (1998).

[9] = target: T2, mitochondrial polymerase gamma; conditions: cited from earlier work
[10] = target: T2, mitochondrial polymerase gamma; conditions: exonuclease; from Johnson et al.; cited from earlier work
[11] = Table 4, primer/template DNA/DNA, RT WT
[12] = Table 4, primer/template DNA/RNA, RT WT
[13] = mitochondrial polymerase gamma, from Johnson et al.

Compound | Kd [2] [µM] | kpol [2] [s⁻¹] | kpol/Kd [2] [M⁻¹ s⁻¹] | Efficiency [3, 11] [s^−1μM^−1] | Kd [3, 11] [µM] | kpol [3, 11] [s⁻¹] | Efficiency [3, 12] [s^−1μM^−1] | Kd [3, 12] [µM] | kpol [3, 12] [s⁻¹] | kexo [4] [s⁻¹] | % Control (mtDNA/Alu) ([5]; 1 μM) [%] | Ration of mtDNA/Alu ([5]; 1 μM) | % Control (mtDNA/Alu) ([5]; 10 μM) [%] | Ration of mtDNA/Alu ([5]; 10 μM) | IC50 (HEP-G2) [µM] | previously reported activity against HIV (HIV [6]) | IC50 (KB) [µM] | IC50 (HeLa) [µM] | IC50 (CEM) [µM] | anti-HIV activity (HIV IIIB) | further results
Nc1nc2c(ncn2[C@H]2C[C@H](O)[C@@H](COP(=O)(O)OP(=O)(O)OP(=O)(O)O)O2)c(=O)[nH]1 [DGTP] | 1.4 ± 0.3 | 175 ± 10 | 1.3e+08 ± 3e+07 | 1.7 ± 0.3 | 14 ± 2 | 24 ± 1 | 3.1 ± 0.6 | 11 ± 2 | 35 ± 2 | 0.019 ± 0.0019 |  |  |  |  |  |  |  |  |  |  | Kd ([1]; Table 3, substrate DNA/DNA): 14 ± 2 µM; Selectivity = (kpol/Kd)dGTP/(kpol/Kd)analog ([1]; Table 3, substrate DNA/DNA): 1; kpol ([1]; Table 3, substrate DNA/DNA): 24 ± 1 s⁻¹; Kd ([1]; Table 3, substrate DNA/RNA): 11 ± 2 µM; Selectivity = (kpol/Kd)dGTP/(kpol/Kd)analog ([1]; Table 3, substrate DNA/RNA): 1; kpol ([1]; Table 3, substrate DNA/RNA): 35 ± 2 s⁻¹
Nc1nc2c(ncn2[C@H]2C=C[C@@H](CO)O2)c(=O)[nH]1 [d4G, 9-(2,3-Dideoxy-β-D-glycero-pent-2-enofuranosyl)guanine] |  |  |  |  |  |  |  |  |  |  | 105 | 1.12 ± 0.17 | 106 | 1.14 ± 0.07 | 280 ± 19 | inactive | > 500 | 200 ± 13 | 70 ± 11 | complete inactivity | IC50 (MT-2): 40 ± 9 µM
Nc1nc(NC2CC2)c2ncn([C@H]3C=C[C@@H](CO)O3)c2n1 [Cd4G, 2-Amino-6-cyclopropylamino-9-(2,3-dideoxy-β-D-glycero-pent-2-enofuranosyl)purine] |  |  |  |  |  |  |  |  |  |  | 99 | 1.06 ± 0.11 | 84 | 0.90 ± 0.06 | > 500 |  | > 500 | 500 ± 33 | 200 ± 31 | strong anti-HIV activity | mitochondrial toxicity [5]: lower mitochondrial toxicity than D4T; % Control (mtDNA/Alu) ([5]; 200 μM): 43%; Ration of mtDNA/Alu ([5]; 200 μM): 0.46 ± 0.06; fold less active (anti-HIV) in the presence of mycophenolic acid (HIV [7]; 200 nM mycophenolic acid, 30 minutes, 1×10^5 cells/ml): 3 fold; anti-HIV activity on addition of guanine to the media (HIV [7]; in the presence of mycophenolic acid, data not shown): rescued; EC50 (HIV IIIB; Human immunodeficiency virus 1, IIIB, MT2, 120 h, read-out: EC50 (concentration necessary to save 50% of the cells)): 8 µM; IC50 (MT-2): 100 ± 22 µM; anti-HIV interaction in combination with 3TC (HIV [8]; FIG. 3 and FIG. 4): synergistic; anti-HIV interaction in combination with D4T (HIV [8]; FIG. 4): somewhat synergistic; anti-HIV interaction in combination with AZT (HIV [8]; FIG. 4, D4T with AZT data not shown): synergistic
Nc1nc2c(ncn2[C@H]2C=C[C@@H](COP(=O)(O)OP(=O)(O)OP(=O)(O)O)O2)c(=O)[nH]1 [D4GTP] | 0.61 ± 0.13 | 0.27 ± 0.02 | 450000 ± 99000 | 1.1 ± 0.3 | 11 ± 2 | 11 ± 1 | 1.4 ± 0.2 | 9.5 ± 1.1 | 13 ± 0.5 | 0.00046 ± 0.000021 |  |  |  |  |  |  |  |  |  |  | Toxicity Index ([2]; fold increase in time for mitochondrial replication, 1 = no toxicity): 320; Kd ([3]; Table 3, substrate DNA/DNA): 11 ± 2 µM; Selectivity = (kpol/Kd)dGTP/(kpol/Kd)analog ([3]; Table 3, substrate DNA/DNA): 1.5; kpol ([3]; Table 3, substrate DNA/DNA): 11 ± 1 s⁻¹; kpol/Kd ([3]; Table 3, substrate DNA/DNA): 1.1 ± 0.26; Kd ([3]; Table 3, substrate DNA/RNA): 9.5 ± 1.1 µM; Selectivity = (kpol/Kd)dGTP/(kpol/Kd)analog ([3]; Table 3, substrate DNA/RNA): 2; kpol ([3]; Table 3, substrate DNA/RNA): 13 ± 0.5 s⁻¹; kpol/Kd ([3]; Table 3, substrate DNA/RNA): 1.4 ± 0.2; Selectivity = efficiency dGTP/efficiency analog [3, 11]: 2; Selectivity = efficiency dGTP/efficiency analog [3, 12]: 2
Cc1cn([C@H]2C=C[C@@H](COP(=O)(O)OP(=O)(O)OP(=O)(O)O)O2)c(=O)[nH]c1=O [D4TTP] |  |  |  |  |  |  |  |  |  |  |  |  |  |  |  |  |  |  |  |  | Toxicity Index [9]: 3,120; Discrimination [9, 13]: 7.4; Kd [9, 13]: 0.045 ± 0.0075 µM; kpol [9, 13]: 0.24 ± 0.01 s⁻¹; kpol/Kd [9, 13]: 5.4e+06 ± 930000 M⁻¹ s⁻¹; kexo [10]: 0.0004 s⁻¹
Nc1nc2c(ncn2[C@H]2C=C[C@@H](CO)C2)c(=O)[nH]1 [carbovir] |  |  |  |  |  |  |  |  |  |  |  |  |  |  |  | significant activity |  |  |  |  | 
